Key:
UGCG = molecular target: T1, UGCG (Mus musculus, UniProt O88693); assay: Expression level of ganglioside GM3 in isolated T cells after in vitro PPMP treatment (flow cytometer); format: cell-based; conditions: isolated mouse spleen T cells, PPMP 0, 1, 5 and 10 μM for 24 hours
T1 construct: endogenous in cells; host or cells: primary T cells isolated from mouse spleen
T1 sequence (O88693 1-394): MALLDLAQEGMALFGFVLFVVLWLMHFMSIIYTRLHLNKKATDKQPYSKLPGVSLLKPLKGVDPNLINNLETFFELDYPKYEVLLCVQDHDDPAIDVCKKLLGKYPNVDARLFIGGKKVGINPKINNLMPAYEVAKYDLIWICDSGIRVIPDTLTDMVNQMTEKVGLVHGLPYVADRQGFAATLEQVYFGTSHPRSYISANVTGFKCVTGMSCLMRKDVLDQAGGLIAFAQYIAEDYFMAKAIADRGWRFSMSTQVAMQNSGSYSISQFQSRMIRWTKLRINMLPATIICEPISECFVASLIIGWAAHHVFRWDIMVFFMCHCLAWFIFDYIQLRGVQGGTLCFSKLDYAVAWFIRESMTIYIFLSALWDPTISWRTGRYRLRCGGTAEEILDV
Procedure: (§1) The isolated T cells were treated with PPMP in concentrations of 0, 1, 5 and 10 μM for 24 hours, and then measuring the expression level of GM3 (left view) and the proliferation rate of the cells (right view).
(§2) Using Dynabeads Untouched Mouse T Cells kit (Thermo fisher Scientific), T cells were isolated from the excised spleen, and the T cells were then activated by IL-2 (30 U/mL) and Dynabeads Mouse T-Cell activator CD3-CD28 (Thermo fisher Scientific). Thereafter, the T cells were recovered over time, and the expression of a PD-1 gene was then analyzed by qPCR. With regard to the proliferation rate of the T cells after the activation, the proliferation rate was increased in the cells derived from the T cell-specific UGCG gene-deficient mice (FIG. 7A).
(§3) The T cells were isolated in the same manner as that of the above 3, and the isolated T cells were then treated with PPMP used as a UGCG inhibitor in various concentrations for 24 hours. Thereafter, the expression level of ganglioside GM3 was analyzed using a flow cytometer. […] Moreover, in order to examine the toxicity of the PPMP treatment on T cells, the proliferation rate of the T cells was measured using a cell proliferation/cytotoxicity assay kit (CK-1, Dojindo).

[1] = tested on: acute leukemia-derived cell line ALL; conditions: combination with fenretinide; cited from earlier work
T cells = assay: Proliferation rate / toxicity of PPMP treatment on T cells (cell proliferation/cytotoxicity assay kit CK-1, Dojindo); format: cell-based, mouse; conditions: isolated T cells
Procedure: as §1, §2, §3

neuroblastoma cell line = conditions: combination with fenretinide; cited from earlier work

## CCCCCCCCCCCCCCCC(=O)NC(CN1CCOCC1)C(O)c1ccccc1 (centres unmarked) [PPMP, 1-phenyl-2-hexadecanoylamino-3-morpholino-1-propanol]
UGCG
  expression level of ganglioside GM3: reduced in a PPMP concentration-dependent manner
[1]
  effect on cytotoxicity of fenretinide (4-HPR): synergistically enhances the cytotoxicity
T cells; PPMP 0, 1, 5 and 10 μM for 24 hours, concentration range of reducing glycolipids
  proliferation rate of the T cells: did not influence on the proliferation rate
T cells; PPMP treatment for 24 hours
  toxicity of PPMP on the cells: low
Neuroblastoma cell line
  effect on cytotoxicity of fenretinide (4-HPR): synergistically enhances the cytotoxicity

Source: patent US20210386783A1, “USE OF GLUCOSYLCERAMIDE SYNTHASE GENE-DEFICIENT T CELL AND THERAPEUTIC UTILIZATION THEREOF” (SCHOOL CORPORATION, AZABU VETERINARY MEDICINE EDUCATIONAL …, priority 2018, published 2021)
